In general, Ki refers to the equilibrium dissociation constant of an inhibitor or competing ligand from its target. The inhibition is the share of the control response that was lost under treatment.

Test [1] concerns the target T1, Rat Striatal Nicotinic Receptors ([^3H]NIC binding sites; α4β2) (Rattus norvegicus, UniProt P09483+P12390).
T1 construct: Whole brain, excluding cortex and cerebellum, was homogenized in 20 vol of ice-cold buffer; from tissue; host or cells: rat brain membranes (whole brain excluding cortex and cerebellum)
In words: Inhibition of [^3H]NIC binding. The conditions noted are these: full concentration effect; 3 nM [^3H]NIC; nonspecific 10 μM cytisine; rat brain membranes; read-out: [^3H]NIC binding, Ki.

Test [2] addresses T2, Rat Striatal Nicotinic Receptors ([^3H]MLA binding sites; α7) (Rattus norvegicus, UniProt Q05941).
T2 construct: Whole brain, excluding cortex and cerebellum, was homogenized in 20 vol of ice-cold buffer; from tissue; host or cells: rat brain membranes (whole brain excluding cortex and cerebellum)
Put plainly: Inhibition of [^3H]MLA (methyllycaconitine) binding. As to conditions: [^3H]MLA, nonspecific S-nicotine, rat brain membranes; for inhibition at 0.1 µM: read-out: [^3H]MLA binding, % inhibition. Put shortly: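 Rat brain membranes were washed by repeated centrifugation at 25,000 g, with a 10 min incubation at 37° C. in between. Samples of 250 μl, containing 100-140 μg of membrane protein, 3 nM [^3H]-methyllycaconitine and test analog in 50 mM Tris assay buffer, were incubated in 96-well plates for 60 min at room temperature. Nonspecific binding was defined with 10 μM S-nicotine. Bound radioactivity was collected on polyethylenimine-soaked GF/B filter plates and counted on a TopCount.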

Test [3] concerns nicotinic receptors mediating S-nicotine-evoked [^3H]DA release in rat striatal slices. Put plainly: Inhibition of S-nicotine-evoked [^3H]dopamine release from superfused rat striatal slices. The conditions noted are these: 100 nM analog superfused 60 min before NIC 10 μM, rat striatal slices; for inhibition at 0.1 µM: 1 h, read-out: [^3H]DA release, % inhibition of S-nicotine-evoked release. The class given is cell-based. The method, then: Rat striatal slices (500 μm thickness, 6-8 mg wet weight) were incubated for 30 minutes in Krebs buffer (118 mM NaCl, 4.7 mM KCl, 1.2 mM MgCl2, 1.0 mM NaH2PO4, 1.3 mM CaCl2, 11.1 mM glucose, 25 mM NaHCO3, 0.11 mM L-ascorbic acid, and 0.004 mM disodium EDTA; pH 7.4, and saturated with 95% O2/5% CO2) in a metabolic shaker at 34° C. Slices were rinsed with 15 mL of fresh buffer and incubated for an additional 30 minutes in fresh buffer containing 0.1 μM [^3H]dopamine (DA; 6 slices/3 mL). Subsequently, slices were rinsed with 15 mL of fresh buffer and transferred to a glass superfusion chamber. Slices were superfused (1.0 mL/min) for 60 minutes with Krebs buffer containing nomifensine (10 μM) and pargyline (10 μM) and maintained at 34° C., pH 7.4, with continual aeration (95% O2/5% CO2). Two five minute samples (5 mL each) were collected to determine basal outflow of [^3H]DA. The bis-quaternary ammonium analogs were added to the superfusion buffer after the collection of the second sample and remained in the buffer until 12 consecutive five minute samples were collected. Subsequently, S-nicotine (NIC; 10 μM) was added to the buffer and an additional 12 consecutive five minute samples were collected. At the end of the experiment, each slice was solubilized and the [^3H] content of the tissue determined.
Radioactivity in the superfusate and tissue samples was determined by liquid scintillation spectroscopy. Fractional release for tritium collected in each sample was divided by the total tritium present in the tissue at the time of sample collection and was expressed as a percentage of total tritium. Basal [^3H]outflow was calculated from the average of the tritium collected in the two five minute samples just before addition of the quaternary analog. The sum of the increase in collected tritium resulting from either exposure to the test compound or exposure to S-nicotine in the absence and presence of the test compound equaled total [^3H]overflow. [^3H]Overflow was calculated by subtracting the [^3H]outflow during an equivalent period of prestimulation from the values in samples collected during and after drug exposure. Inasmuch as the radiolabelled compounds were not separated and identified, the tritium collected in superfusate is referred to as either [3H]outflow or [^3H]overflow, rather than as [^3H]DA. [^3H]Overflow primarily represents [^3H]DA in the presence of nomifensine and pargyline in the superfusion buffer.
The bis-quaternary ammonium analogs were also evaluated for their ability to inhibit NIC evoked [^3H]DA release. In these experiments, the striatal slices were superfused for 60 minutes with 100 nM concentration of the quaternary analogs prior to NIC (10 μM) exposure. Antagonist activity was evaluated by comparing the NIC-evoked [^3 H]overflow in the absence and presence of the analogs. The relative order of potency of the quaternary analogs for inhibition of NIC-evoked [^3H]DA release from rat striatal slices is illustrated in Table 1.
^aData are % inhibition at 100 nM concentration of the bis-quaternary ammonium analogs for at least 1-3 independent experiments; with the exception of when a Ki value in μM is provided, in which case a full concentration effect was evaluated. Specific binding in the [^3H]NIC binding assay is calculated as the difference between the total binding of 3 nM [^3H]NIC and nonspecific binding in the presence of 10 μM cold cytisine. Specific binding for the [^3H]MLA binding assay is calculated as the difference between the total binding of […] [^3H]MLA to the receptors alone and its nonspecific binding in the presence of […] cold S-nicotine. Analog-induced inhibition of S-nicotine-evoked [^3H]DA release is calculated as a percent of that in the absence of the bis-quaternary ammonium analog.

Test [4] has as its target T1, Rat Striatal Nicotinic Receptors ([^3H]NIC binding sites; α4β2). In words: Inhibition of [^3H]NIC binding. The conditions noted are these: 100 nM analog, 3 nM [^3H]NIC, nonspecific 10 μM cytisine, rat brain membranes; for inhibition at 0.1 µM: 1 h.

T1 sequence (P09483 31-630): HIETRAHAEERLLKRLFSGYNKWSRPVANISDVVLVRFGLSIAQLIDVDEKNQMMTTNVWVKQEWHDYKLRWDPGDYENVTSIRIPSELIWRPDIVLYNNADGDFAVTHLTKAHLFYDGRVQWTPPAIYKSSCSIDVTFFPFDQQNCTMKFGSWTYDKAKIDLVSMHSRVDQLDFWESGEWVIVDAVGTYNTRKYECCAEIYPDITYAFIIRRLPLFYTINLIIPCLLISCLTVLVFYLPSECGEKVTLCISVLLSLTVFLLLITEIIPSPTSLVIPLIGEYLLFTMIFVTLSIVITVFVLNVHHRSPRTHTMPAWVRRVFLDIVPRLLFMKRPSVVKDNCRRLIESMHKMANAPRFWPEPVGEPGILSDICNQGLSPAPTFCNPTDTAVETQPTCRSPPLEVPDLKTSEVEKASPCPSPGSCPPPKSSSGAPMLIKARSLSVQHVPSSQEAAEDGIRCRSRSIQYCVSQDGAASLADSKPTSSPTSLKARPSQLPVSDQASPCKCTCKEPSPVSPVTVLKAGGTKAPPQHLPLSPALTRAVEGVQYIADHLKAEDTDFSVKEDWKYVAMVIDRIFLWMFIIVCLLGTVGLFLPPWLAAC
T1 sequence (P12390 25-500): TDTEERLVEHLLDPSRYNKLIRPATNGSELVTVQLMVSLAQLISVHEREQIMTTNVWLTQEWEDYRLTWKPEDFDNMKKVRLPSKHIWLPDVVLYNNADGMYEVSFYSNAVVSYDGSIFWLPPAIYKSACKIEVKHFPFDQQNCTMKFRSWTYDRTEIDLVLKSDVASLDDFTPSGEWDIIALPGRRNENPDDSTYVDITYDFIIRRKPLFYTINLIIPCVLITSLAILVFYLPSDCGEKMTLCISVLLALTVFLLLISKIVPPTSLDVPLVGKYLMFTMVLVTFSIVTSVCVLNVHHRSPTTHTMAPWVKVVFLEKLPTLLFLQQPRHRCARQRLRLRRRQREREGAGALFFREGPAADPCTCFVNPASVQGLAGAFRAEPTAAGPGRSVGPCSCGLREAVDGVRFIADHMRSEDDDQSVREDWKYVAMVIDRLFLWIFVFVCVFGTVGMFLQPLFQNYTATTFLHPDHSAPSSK
T2 sequence (Q05941 23-502): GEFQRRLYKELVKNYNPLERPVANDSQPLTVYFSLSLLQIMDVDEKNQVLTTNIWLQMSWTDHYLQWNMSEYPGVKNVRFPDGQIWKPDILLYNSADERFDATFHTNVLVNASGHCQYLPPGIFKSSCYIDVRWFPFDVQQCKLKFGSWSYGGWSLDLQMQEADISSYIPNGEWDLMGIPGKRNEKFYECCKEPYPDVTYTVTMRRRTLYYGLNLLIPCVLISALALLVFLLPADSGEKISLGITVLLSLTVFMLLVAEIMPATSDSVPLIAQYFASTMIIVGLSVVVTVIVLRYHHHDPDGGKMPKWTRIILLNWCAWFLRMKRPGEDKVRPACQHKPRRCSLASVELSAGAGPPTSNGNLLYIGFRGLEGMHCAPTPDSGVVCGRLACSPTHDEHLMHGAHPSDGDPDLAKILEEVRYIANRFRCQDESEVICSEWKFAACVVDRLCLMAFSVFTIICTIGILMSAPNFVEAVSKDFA

As for `C(/C=C\CCCC[n+]1cccc2c1CCCC2)=C/CCCC[n+]1cccc2c1CCCC2` [Example 5, cis-cis-N,N′-(dodeca-5,7-diene-1,12-diyl)-bis-(5,6,7,8-tetrahydro-quinolinium)dibromide], the Ki was 3.63 µM in test [1] and 7.64 µM in test [2] (full concentration effect, read-out: [^3H]MLA binding, Ki).
Take `C(#Cc1cccc(C#CCCC[n+]2ccc3ccccc3c2)c1)CCC[n+]1ccc2ccccc2c1` [Example 55, 1,3-bis-(5-isoquinolinium-pent-1-ynyl)-benzene dibromide]: the inhibition at 0.1 µM worked out at 5.6% in test [2] (100 nM analog), 31% in test [3] and 7.4% in test [4].
In the same order, the values of `CN1CCC[C@@H]1c1ccc[n+](CCCC#Cc2cccc(C#CCCC[n+]3cccc([C@H]4CCCN4C)c3)c2)c1` [Example 56, 1,3-bis-[5(2′-S-nicotinium-pent-1-ynyl)]benzene dibromide] are 2.6%, 18% and 3.1%.
In the same order, the values of `C(#Cc1cccc(C#CCCC[n+]2cccc(-c3ccccc3)c2)c1)CCC[n+]1cccc(-c2ccccc2)c1` [Example 58, 1,3-bis-[5-(3-phenyl-pyridinium)-pent-1-ynyl]-benzene dibromide] are 11%, 8% and 3.4%.
In the same order, the values of `C(#Cc1cccc(C#CCCC[n+]2ccccc2)c1)CCC[n+]1ccccc1` [Example 59, 1,3-bis-(5-pyridinium-pent-1-ynyl)-benzene dibromide] are 4.4%, 12% and 3.6%.
In the case of `Cc1cccc[n+]1CCCCCc1cccc(CCCCC[n+]2ccccc2C)c1` [Example 62, 1,3-bis-[5-(2-methyl-pyridinium)-pentyl]-benzene dibromide], the inhibition at 0.1 µM stood at 0% in test [2] (100 nM analog), 62% in test [3] and 7.2% in test [4].
On the same counts, the results for `Cc1ccc[n+](CCCCCc2cccc(CCCCC[n+]3cccc(C)c3)c2)c1` [Example 63, 1,3-bis-[5-(3-methyl-pyridinium)-pentyl]-benzene dibromide] are 6.24%, 45% and 3.5%.
In the same order, the values of `Cc1cc[n+](CCCCCc2cccc(CCCCC[n+]3ccc(C)cc3)c2)cc1` [Example 64, 1,3-bis-[5-(4-methyl-pyridinium)-pentyl]-benzene dibromide] are 3.5%, 27% and 4.6%.
In the same order, the values of `Cc1cc[n+](CCCCCc2cccc(CCCCC[n+]3ccc(C)cc3C)c2)c(C)c1` [Example 65, 1,3-bis-[5-(2,4-dimethyl-pyridinium)-pentyl]-benzene dibromide] are 5.6%, 26% and 0.5%.
`Cc1cc[n+](CCCCCc2cccc(CCCCC[n+]3ccc(C)c(C)c3)c2)cc1C` [Example 66, 1,3-bis-[5-(3,4dimethyl-pyridinium)-pentyl]-benzene dibromide]: the values for the inhibition at 0.1 µM in test [2] (100 nM analog), in test [3] and in test [4] were 7%, 35% and 10.5%, respectively.
In the same order, the values of `Cc1cc(C)c[n+](CCCCCc2cccc(CCCCC[n+]3cc(C)cc(C)c3)c2)c1` [Example 67, 1,3-bis-[5-(3,5-dimethyl-pyridinium)-pentyl]-benzene dibromide] are 1.4%, 34% and 4.8%.
In the same order, the values of `c1cc(CCCCC[n+]2cccc3ccccc32)cc(CCCCC[n+]2cccc3ccccc32)c1` [Example 68, 1,3-bis-(5-quinolinium-pentyl)-benzene dibromide] are 14%, 16% and 8.3%.
In the same order, the values of `c1cc(CCCCC[n+]2ccc3ccccc3c2)cc(CCCCC[n+]2ccc3ccccc3c2)c1` [Example 69, 1,3-bis-(5-isoquinolinium-pentyl)-benzene dibromide] are 5.2%, 0% and 8.8%.
For `Cc1ccc[n+](CCCc2ccc(-c3ccc(CCC[n+]4cccc(C)c4)cc3)cc2)c1` [Example 78, N,N′-[(1,1′-biphenyl)-4,4′-di-(3-propanyl)]-bis-(3-methylpyridinium)dibromide], the results for the inhibition at 0.1 µM in test [2] (100 nM analog), in test [3] and in test [4] were 5.5%, 44% and 0%, respectively.
In the same order, the values of `Cc1ccc[n+](CCOCCOCCOCC[n+]2cccc(C)c2)c1` [Example 82, N,N′-{2,2′-[oxybis-(2,1-ethandiyloxy)]bis-ethyl}-bis(3-methylpyridinium)dichloride] are 13%, 58% and 17%.
On the same counts, the results for `Cc1cc[n+](CCOCCOCCOCC[n+]2ccc(C)cc2)cc1` [Example 83, N,N′-{2,2′-[oxybis-(2,1-ethandiyloxy)]bis-ethyl}-bis(4-methylpyridinium)dichloride] are 7%, 53% and 15%.
On the same counts, the results for `Cc1cc[n+](CCC#Cc2ccc(C#CCC[n+]3ccc(C)c(C)c3)cc2)cc1C` [Example 100, N,N′-[(1,4-phenylene)-bis-(4-butynyl)]-bis-(3,4-dimethyl-pyridinium)dibromide] are 0%, 31% and 3%.
On to `Cc1cc(C)c[n+](CCC#Cc2ccc(C#CCC[n+]3cc(C)cc(C)c3)cc2)c1` [Example 101, N,N′-[(1,4-phenylene)-bis-(4-butynyl)]-bis-(3,5-dimethyl-pyridinium)dibromide], for which the inhibition at 0.1 µM in test [2] (100 nM analog) was 0%; in test [3] it was 14%; in test [4], 0%.
Regarding “N,N′-[(1,1′-biphenyl)-4,4′-di-(3-propanyl)]-bis-[3-(2′-S-1-methyl-pyrrolidin-2-yl)-pyridinium]dibromide [Example 70]”, the “[^3H]MLA binding, % inhibition” value in test [2] (100 nM analog) is 11%. Also, the “[^3H]DA release, % inhibition of S-nicotine-evoked release” value in test [3] was found to be 8%. In test [4], the “[^3H]NIC binding, % inhibition” value was determined as 12%.

Values taken from patent publication US8178678B2, “Bis-quaternary ammonium salts and methods for modulating neuronal nicotinic acetylcholine receptors” (University of Kentucky Research Foundation, priority 2006, dated 2012).
